Columns and labels:
Type in all cases: biochemical
[1] = molecular target: T1, human DDAH-1 (Homo sapiens, UniProt O94760); assay: Time-dependent inactivation of human DDAH-1
[2] = molecular target: T1, human DDAH-1; assay: Concentration-response and mode-of-inhibition assays for IC50 and Ki; conditions: for Hill Coefficient: concentration-response plot, substrate 50 µM; for Mode of inhibition: varying substrate and inhibitor, large effect on KM, not on kcat
[3] = molecular target: T1, human DDAH-1; assay: Reversibility upon dilution into excess substrate; conditions: enzyme-inhibitor mixture diluted into excess substrate
[4] = molecular target: T2, P. aeruginosa isoform of DDAH (Pseudomonas aeruginosa, UniProt Q9I4E3); assay: Inhibition of P. aeruginosa DDAH by reversible inhibitors; conditions: at concentrations up to 1 mM
T2 sequence (Q9I4E3 1-254): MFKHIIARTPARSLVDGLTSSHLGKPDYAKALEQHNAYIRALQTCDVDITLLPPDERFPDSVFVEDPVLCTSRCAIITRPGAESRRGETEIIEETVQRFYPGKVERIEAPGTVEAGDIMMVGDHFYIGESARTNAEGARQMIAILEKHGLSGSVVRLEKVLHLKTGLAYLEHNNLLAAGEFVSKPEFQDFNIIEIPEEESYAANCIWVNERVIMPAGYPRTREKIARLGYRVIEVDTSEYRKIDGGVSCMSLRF

T1 sequence (O94760 whole entry): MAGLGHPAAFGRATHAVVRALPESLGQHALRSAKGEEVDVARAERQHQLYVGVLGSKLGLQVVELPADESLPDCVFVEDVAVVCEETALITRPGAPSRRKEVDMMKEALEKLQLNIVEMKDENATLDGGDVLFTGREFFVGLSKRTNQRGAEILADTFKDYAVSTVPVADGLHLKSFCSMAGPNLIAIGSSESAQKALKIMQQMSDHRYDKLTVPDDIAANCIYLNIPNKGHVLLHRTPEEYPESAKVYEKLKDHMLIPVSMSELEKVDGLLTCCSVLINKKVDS

| kinact/KI [1] | Hill Coefficient [2] | Mode of inhibition [2] | Reversibility of inhibition [3] | Inhibition of P. aeruginosa DDAH [4] | SMILES | Ligand Efficiency ([2]; calculated from experimental Ki values) |
| --- | --- | --- | --- | --- | --- | --- |
| ~0.05 M⁻¹ s⁻¹ | – | – | – | – | Cc1cc(Br)ccn1 [Compound 10, 2-methyl-4-bromopyridine] | – |
| – | 1.0 ± 0.3 | competitive | full activity was rapidly regained | – | NCCSc1nc2ccccc2o1 [Compound 13, 2-(1,3-benzoxazol-2-ylthio)ethanamine] | 0.3 kcal / mol / heavy (non-hydrogen) atom |
| ~0.04 M⁻¹ s⁻¹ | – | – | – | – | OCc1cc(Cl)ccn1 [Compound 11, 2-hydroxymethyl-4-chloropyridine] | – |
| – | 1.5 ± 0.2 | competitive | full activity was rapidly regained | did not show any inhibition | CCc1nc2ccccc2[nH]1 [Compound 12, 2-ethyl-benzimidazole] | – |

From article PMC3444674 (Bioorganic & medicinal chemistry, 2012)
